The numbers were not newly measured in patent US7169813B2, “4-oxo-fenretinide, administered alone and in combination with fenretinide, as preventive and therapeutic agent for cancer” (Fondazione IRCCS “Istituto Nazionale Dei Tumori”, priority 2004, dated 2007), which cites them from elsewhere.

Data set [1] has as its system human ovarian carcinoma. The settings on record: mice bearing a human ovarian carcinoma, cited from earlier work.
In data set [2] the test system is different tumor cell lines. The settings on record: cited from earlier work.

`COc1ccc(NC(=O)\C=C(C)/C=C/C=C(C)\C=C\C2=C(C)CCCC2(C)C)cc1` (stereo in doubt) [4-MPR, N-(4-methoxyphenyl)retinamide]: the antitumor effect entry in data set [1] is “no antitumor effect”. Further, in data set [1] (with 4-HPR), the “effect on 4-HPR activity” value was “did not increase 4-HPR activity”. Moreover, the inhibiting proliferation entry in data set [2] was “ineffective”.
